The source made the active and inactive calls. No cut-off for these calls is given here.
How the values were obtained:
Fibroblast [1] = experiment: Induction of CRABP 2 mRNA expression in human normal fibroblast at 10 uM by […] relative to control; type: functional
Fibroblast [2] = experiment: Induction of CRABP 2 mRNA expression in human normal fibroblast at 1 uM by […] relative to control; type: functional
[3] = molecular target: Transcription factor Jun (Homo sapiens) (UniProt P05412); experiment: Inhibition of AP1 expressed in human HaCaT cells transfected with Coll-CAT reporter gene assessed as collagenase expression by CAT-ELISA; type: cell-based
HaCaT [4] = experiment: Decrease in collagenase expression in Coll-CAT gene transfected human HaCaT cells co-transfected with c-Jun relative to control; type: functional
[5] = Thermal stability at 4 degC after 4 weeks; type: physicochemical; settings: 672 h
[6] = molecular target: T1, Retinoic acid receptor alpha (Homo sapiens) (UniProt P10276); experiment: Increase in transcriptional activity of RARalpha receptor epressed in human HaCaT cells co-transfected with DR5-tk-CAT reporter plasmid assessed as beta-galactosidase activity by CAT-ELISA; type: cell-based
T1 sequence (whole entry): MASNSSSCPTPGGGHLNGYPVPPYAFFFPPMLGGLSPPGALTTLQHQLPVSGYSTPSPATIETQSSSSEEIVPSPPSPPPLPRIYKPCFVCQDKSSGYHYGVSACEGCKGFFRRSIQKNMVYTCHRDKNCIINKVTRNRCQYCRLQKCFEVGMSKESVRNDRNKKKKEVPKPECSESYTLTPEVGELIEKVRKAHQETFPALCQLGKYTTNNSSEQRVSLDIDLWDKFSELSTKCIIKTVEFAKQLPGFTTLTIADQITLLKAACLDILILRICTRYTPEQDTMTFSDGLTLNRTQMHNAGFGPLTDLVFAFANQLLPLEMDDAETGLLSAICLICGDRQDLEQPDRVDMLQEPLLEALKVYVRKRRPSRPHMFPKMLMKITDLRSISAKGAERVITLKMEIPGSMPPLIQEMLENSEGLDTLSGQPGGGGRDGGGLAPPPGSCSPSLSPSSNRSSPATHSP

[7] = Stability in human fibroblasts assessed as retention time after 2 days; type: ADME, cell-based; settings: fibroblast, 48 h
HaCaT [8] = experiment: Decrease in collagenase expression in Coll-CAT gene transfected human HaCaT cells co-transfected with c-Jun and retinoic acid receptor relative to control; type: functional
[9] = Photostability after UV irradiation; type: physicochemical
Fibroblast [10] = experiment: Induction of collagen biosynthesis in human normal fibroblast; type: functional, cell-based
[11] = Cytotoxicity against human normal fibroblast after 1 day by MTT assay; type: cell-based; settings: 24 h
[12] = Thermal stability at 40 degC after 4 weeks; type: physicochemical; settings: 672 h

Sequence of Transcription factor Jun (Homo sapiens) (P05412 whole entry): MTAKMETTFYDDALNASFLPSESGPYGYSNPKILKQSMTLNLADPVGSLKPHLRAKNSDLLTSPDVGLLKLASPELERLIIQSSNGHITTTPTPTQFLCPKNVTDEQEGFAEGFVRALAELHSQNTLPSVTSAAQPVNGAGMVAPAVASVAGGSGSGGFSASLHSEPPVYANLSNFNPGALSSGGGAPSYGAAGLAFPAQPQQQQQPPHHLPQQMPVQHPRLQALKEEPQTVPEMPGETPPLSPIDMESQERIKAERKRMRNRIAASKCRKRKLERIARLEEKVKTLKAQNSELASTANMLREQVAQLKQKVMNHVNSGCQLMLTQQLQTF

Row | Compound | Activity (Fibroblast [1]) | Activity (Fibroblast [2]) | Activity [3] | inhibition (INH) (HaCaT [4]) | Stability [5] | Activity [6] | Activity [7] | inhibition (INH) (HaCaT [8]) | Stability [9] | Activity (Fibroblast [10]) | IC50 [11] | Activity [12] | Activity [9]
1 | CCCCCCCCCCCCCCCC(=O)OC/C=C(C)/C=C/C=C(C)/C=C/C1=C(C)CCCC1(C)C [VITAMIN A PALMITATE] | 1.4 | 1.2 |  |  |  |  |  |  |  |  |  |  | 
2 | CC1=C(/C=C/C(C)=C/C=C/C(C)=C/COC(=O)/C=C(C)/C=C/C=C(C)/C=C/C2=C(C)CCCC2(C)C)C(C)(C)CCC1 [RETINYLRETINOATE] | 1.75 | 1.56 | Active | 6.7% | Stable | Active | 18.94 min | 52% | Stable | Active | 40 µM |  | 
3 | CC1=C(/C=C/C(C)=C/C=C/C(C)=C/C(=O)O)C(C)(C)CCC1 [TRETINOIN] | 2.05 | 1.84 |  | 5.4% |  |  |  | 64% |  |  |  |  | 
4 | CC1=C(/C=C/C(C)=C/C=C/C(C)=C/CO)C(C)(C)CCC1 [RETINOL] | 1.44 | 1.4 |  | 7.3% | Stable | Active |  | 33% |  |  | 25 µM | Not Active | Not Active
